Tested on: not given
Experiment: not given
Conditions: not given

With `Cc1cnc(NC(=O)c2cc(Oc3cnc(C(=O)N(C)C)cn3)cc(O[C@@H](C)COC(F)F)c2)cn1` [Example 2, 5-[3-[(2S)-1-(difluoromethoxy)propan-2-yl]oxy-5-[(5-methylpyrazin-2-yl)carbamoyl]phenoxy]-N,N-dimethyl-pyrazine-2-carboxamide] the melting point was ~ 75 °C.

Biological target: T1, recombinant human pancreatic GLK (Homo sapiens, UniProt P35557)
T1 construct: 6-His (N); made in house; host or cells: E. coli BL21
T1 sequence (P35557 1-465): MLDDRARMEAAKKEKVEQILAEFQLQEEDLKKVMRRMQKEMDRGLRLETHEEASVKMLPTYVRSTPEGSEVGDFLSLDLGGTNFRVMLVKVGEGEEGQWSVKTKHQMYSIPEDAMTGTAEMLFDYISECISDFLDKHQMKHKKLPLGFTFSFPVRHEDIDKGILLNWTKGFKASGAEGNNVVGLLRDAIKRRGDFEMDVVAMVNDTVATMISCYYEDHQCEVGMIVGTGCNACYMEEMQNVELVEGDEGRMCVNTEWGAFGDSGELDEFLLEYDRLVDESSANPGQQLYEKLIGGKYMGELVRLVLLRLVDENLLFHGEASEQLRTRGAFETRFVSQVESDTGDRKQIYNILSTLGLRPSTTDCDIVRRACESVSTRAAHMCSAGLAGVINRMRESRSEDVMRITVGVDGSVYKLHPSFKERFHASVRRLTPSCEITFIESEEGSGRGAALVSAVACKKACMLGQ
Experiment: Enzymatic activity: activation of glucokinase in the absence of GLKRP
Format: biochemical
Conditions: G-6-P dehydrogenase NADP/NADPH coupled assay, OD 340 nm
Description: Enzymatic activity of recombinant human pancreatic GLK may be measured by incubating GLK, ATP and glucose. The rate of product formation may be determined by coupling the assay to a G-6-P dehydrogenase, NADP/NADPH system and measuring the linear increase with time of optical density at 340 nm Brocklehurst et al (Diabetes 2004, 53, 535-541). Activation of GLK by compounds can be assessed using this assay in the presence or absence of GLKRP as described in Brocklehurst et al (Diabetes 2004, 53, 535-541).
Human GLK and GLKRP cDNA was obtained by PCR from human pancreatic and hepatic mRNA respectively, using established techniques described in Sambrook J, Fritsch E F & Maniatis T, 1989. PCR primers were designed according to the GLK and GLKRP cDNA sequences shown in Tanizawa et al., Proc Natl Acad Sci 1991 August 15; 88(16):7294-7 and Warner et al., Mamm Genome. 1995 August; 6(8):532-6.
GLK was expressed from the vector pTB375NBSE in E. coli BL21 cells, producing a recombinant protein containing a 6-His tag immediately adjacent to the N-terminal methionine. Alternatively, another suitable vector is pET21(+)DNA, Novagen, Cat number 697703. The 6-His tag was used to allow purification of the recombinant protein on a column packed with nickel-nitrilotriacetic acid agarose purchased from Qiagen (cat no 30250).

`C[C@@H](COC(F)F)Oc1cc(Oc2cnc(C(=O)N(C)C)cn2)cc(C(=O)Nc2ccn(C)n2)c1` [Example 5, 5-[3-[(2S)-1-(difluoromethoxy)propan-2-yl]oxy-5-[(1-methylpyrazol-3-yl)carbamoyl]phenoxy]-N,N-dimethyl-pyrazine-2-carboxamide] and `C[C@@H](COC(F)F)Oc1cc(Oc2cnc(C(=O)N(C)C)cn2)cc(C(=O)Nc2cc[nH]n2)c1` [Example 3, 5-[3-[(2S)-1-(Difluoromethoxy)propan-2-yl]oxy-5-(1H-pyrazol-3-ylcarbamoyl)phenoxy]-N,N-dimethyl-pyrazine-2-carboxamide] are within 1.5-fold of each other in EC50: 79 nM for the first, 65 nM for the second.

First: C[C@@H](COC(F)F)Oc1cc(Oc2ccc(S(C)(=O)=O)nc2)cc(C(=O)Nc2cc[nH]n2)c1 [Example 4, 3-[(2S)-1-(difluoromethoxy)propan-2-yl]oxy-5-(6-methylsulfonylpyridin-3-yl)oxy-N-(1H-pyrazol-3-yl)benzamide]
Second: C[C@@H](COC(F)F)Oc1cc(Oc2ccc(S(C)(=O)=O)nc2)cc(C(=O)Nc2ccn(C)n2)c1 [Example 6, 3-[(2S)-1-(difluoromethoxy)propan-2-yl]oxy-N-(1-methylpyrazol-3-yl)-5-(6-methylsulfonylpyridin-3-yl)oxy-benzamide]
The EC50 of the first is 2.3-fold lower: 33 nM for the first, 77 nM for the second.

`Cc1cnc(NC(=O)c2cc(Oc3cnc(C(=O)N(C)C)cn3)cc(O[C@@H](C)COC(F)F)c2)cn1` [Example 2, 5-[3-[(2S)-1-(difluoromethoxy)propan-2-yl]oxy-5-[(5-methylpyrazin-2-yl)carbamoyl]phenoxy]-N,N-dimethyl-pyrazine-2-carboxamide] and `Cc1cnc(NC(=O)c2cc(Oc3ccc(S(C)(=O)=O)nc3)cc(O[C@@H](C)COC(F)F)c2)cn1` [Example 1, 3-[(2S)-1-(difluoromethoxy)propan-2-yl]oxy-N-(5-methylpyrazin-2-yl)-5-(6-methylsulfonylpyridin-3-yl)oxy-benzamide] are within 1.5-fold of each other in EC50: 55 nM for the first, 69 nM for the second.
